Series [1] concerns the target T1, Proto-oncogene tyrosine-protein kinase receptor Ret (Homo sapiens, UniProt P07949). Briefly: Inhibition of human RET kinase using IGF1Rtide as substrate incubated for 40 mins and measured by ADP-Glo assay.
A short description of series [2]: Drug degradation in 10 mM GSH after 20 hrs measured by LC-MS analysis. The settings on record: 10000 µM. The series is classed as ADME.
A short description of series [3]: Thermal stability of compound in water assessed as half-life. It is filed as physicochemical.
Series [4] is described as follows: Thermal stability of compound in DMSO assessed as half-life. It is filed as physicochemical.
Series [5] concerns the target T1, Proto-oncogene tyrosine-protein kinase receptor Ret. Briefly: Inhibition of full-length RET kinase expressed in human HEK293 cells and measured by NanoBRET assay. The series is classed as cell-based. A general note: In BRET a luciferase serves as donor, and the signal depends on an acceptor being close.

Each structure is given as a SMILES string. pIC50: −log10 of the molar value. A value given as a limit tells only on which side of the number the result lay.

T1 sequence (P07949 whole entry): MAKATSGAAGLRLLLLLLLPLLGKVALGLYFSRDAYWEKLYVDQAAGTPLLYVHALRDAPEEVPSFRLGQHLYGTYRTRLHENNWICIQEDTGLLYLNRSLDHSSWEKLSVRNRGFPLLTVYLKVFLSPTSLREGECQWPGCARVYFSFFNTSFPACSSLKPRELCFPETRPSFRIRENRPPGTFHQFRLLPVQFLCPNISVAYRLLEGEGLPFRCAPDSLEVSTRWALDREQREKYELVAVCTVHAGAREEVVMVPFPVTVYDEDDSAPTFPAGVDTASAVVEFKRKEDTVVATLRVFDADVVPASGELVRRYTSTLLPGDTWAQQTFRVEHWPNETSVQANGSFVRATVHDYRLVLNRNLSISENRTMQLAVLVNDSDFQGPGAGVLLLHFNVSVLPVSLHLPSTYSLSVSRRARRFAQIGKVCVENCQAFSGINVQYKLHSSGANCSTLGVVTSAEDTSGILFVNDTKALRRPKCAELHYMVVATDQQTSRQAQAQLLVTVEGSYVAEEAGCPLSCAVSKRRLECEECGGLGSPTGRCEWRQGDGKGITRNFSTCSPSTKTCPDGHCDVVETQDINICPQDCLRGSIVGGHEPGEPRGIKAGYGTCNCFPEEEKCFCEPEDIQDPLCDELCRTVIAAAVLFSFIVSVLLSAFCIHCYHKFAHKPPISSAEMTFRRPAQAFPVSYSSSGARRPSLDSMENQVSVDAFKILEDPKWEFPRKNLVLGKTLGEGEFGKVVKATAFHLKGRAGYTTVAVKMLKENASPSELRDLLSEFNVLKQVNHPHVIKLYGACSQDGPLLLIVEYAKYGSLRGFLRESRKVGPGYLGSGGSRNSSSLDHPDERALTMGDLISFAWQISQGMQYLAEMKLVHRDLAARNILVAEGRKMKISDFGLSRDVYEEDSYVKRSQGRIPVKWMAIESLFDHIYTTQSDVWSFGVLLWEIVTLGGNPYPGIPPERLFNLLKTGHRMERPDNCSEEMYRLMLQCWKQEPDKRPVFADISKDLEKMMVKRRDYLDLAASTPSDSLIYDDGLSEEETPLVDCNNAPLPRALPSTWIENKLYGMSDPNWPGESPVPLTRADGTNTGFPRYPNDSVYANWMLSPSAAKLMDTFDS

A word on the pIC50: it is the IC50 on a negative log10 scale, so that one unit is a factor of ten. High values mean a small IC50, low ones a large IC50. With `COc1c(/C=C/c2cccc(C(=O)Nc3ccc(CN4CCN(C)CC4)c(C(F)(F)F)c3)c2)cnc2ccccc12`, the pIC50 in series [1] is 7.91.

What is called half-life is the time in which the quantity being followed falls by half. Take `CN1CCN(Cc2ccc(NC(=O)c3ccc(F)c(/N=N/c4cnc5ccccc5c4)c3F)cc2C(F)(F)F)CC1`: the Stability result in series [2] is listed as “Stable”. The half-life was 1.58 days in series [3] and 32.5 days in series [4]. For the same compound, in series [1], the pIC50 is 7.96.

On to `Cc1cccc2cc(/C=C\c3cccc(C(=O)Nc4ccc(CN5CCN(C)CC5)c(C(F)(F)F)c4)c3)cnc12`, for which, in series [1], the pIC50 is 4.90.

`CN1CCN(Cc2ccc(NC(=O)c3cccc(/C=C/c4cnc5ccccc5c4)c3)cc2C(F)(F)F)CC1` had a pIC50 in series [1] of 8.11.

In turn, `CN1CCN(Cc2ccc(NC(=O)c3cccc(/C=C/c4cnc5ccccc5c4N(C)C)c3)cc2C(F)(F)F)CC1` showed a pIC50 in series [1] of 7.01.

Take `CN1CCN(Cc2ccc(NC(=O)c3cccc(/C=C/c4cnc5ccccc5c4Nc4ccccc4)c3)cc2C(F)(F)F)CC1`: the pIC50 in series [1] is 5.64.

In turn, `Cc1cccc2cc(/C=C/c3cccc(C(=O)Nc4ccc(CN5CCN(C)CC5)c(C(F)(F)F)c4)c3)cnc12` gave a pIC50 in series [1] of 6.59.

In series [1], `CC(C)c1cccc2cc(/C=C\c3cccc(C(=O)Nc4ccc(CN5CCN(C)CC5)c(C(F)(F)F)c4)c3)cnc12` gave a pIC50 of less than 3.30.

`CCCc1cccc2cc(/C=C/c3cccc(C(=O)Nc4ccc(CN5CCN(C)CC5)c(C(F)(F)F)c4)c3)cnc12` had a pIC50 in series [1] of 5.25.

As for `CC(C)c1cccc2cc(/C=C/c3cccc(C(=O)Nc4ccc(CN5CCN(C)CC5)c(C(F)(F)F)c4)c3)cnc12`, the pIC50 in series [1] was 5.01.

For the compound `CN1CCN(Cc2ccc(NC(=O)c3cccc(/C=C\c4cnc5ccccc5c4Nc4ccccc4)c3)cc2C(F)(F)F)CC1`, in series [1], the pIC50 was 4.31.

Compound `CN1CCN(Cc2ccc(NC(=O)c3cccc(/C=C/c4cnc5ccccc5c4N4CCCC4)c3)cc2C(F)(F)F)CC1` gave a pIC50 in series [1] of 7.18.

`CN1CCN(Cc2ccc(NC(=O)c3cccc(/C=C\c4cnc5ccccc5c4N(C)C)c3)cc2C(F)(F)F)CC1` had a pIC50 in series [1] of 5.62.

Take `CN1CCN(Cc2ccc(NC(=O)c3ccc(F)c(/N=N\c4cnc5ccccc5c4)c3F)cc2C(F)(F)F)CC1`: the half-life in series [3] is 1.58 days. The pIC50 in series [1] was 7.77.

In the case of `CN1CCN(Cc2ccc(NC(=O)c3cccc(/C=C\c4cnc5ccccc5c4N4CCCC4)c3)cc2C(F)(F)F)CC1`, the pIC50 in series [1] is 5.66.

For the compound `CN1CCN(Cc2ccc(NC(=O)c3cccc(/N=N/c4cnc5ccccc5c4)c3)cc2C(F)(F)F)CC1`, the Stability result in series [2] is reported as “Stable”. Moreover, the half-life in series [3] is 9.04 days; in series [4], 8.67 days. Moreover, in series [1], the pIC50 was 8.02.

With `COc1c(/N=N/c2cccc(C(=O)Nc3ccc(CN4CCN(C)CC4)c(C(F)(F)F)c3)c2)cnc2ccccc12`, the half-life in series [3] is 16.8 days; in series [4] it was 12.6 days. Moreover, the pIC50 in series [1] is 7.62; in series [5], 6.04.

As for `COc1c(/C=C\c2cccc(C(=O)Nc3ccc(CN4CCN(C)CC4)c(C(F)(F)F)c3)c2)cnc2ccccc12`, the pIC50 in series [1] is 5.74.

For `CN1CCN(Cc2ccc(NC(=O)c3cccc(/N=N/c4cnc5[nH]ccc5c4)c3)cc2C(F)(F)F)CC1`, the Stability result in series [2] is listed as “Stable”. Besides, the half-life in series [3] was 26.2 days; in series [4], 15.7 days. In series [1], the pIC50 is 8.52.

On to `CC(C)n1nc(-c2ccc(NC(=O)Nc3cc(C(F)(F)F)ccc3F)cc2)c2c(N)ncnc21`, for which the pIC50 in series [1] was 8.89.

For `COc1c(/N=N\c2cccc(C(=O)Nc3ccc(CN4CCN(C)CC4)c(C(F)(F)F)c3)c2)cnc2ccccc12`, the pIC50 in series [1] is 6.44; in series [5], 5.41.

For `CN1CCN(Cc2ccc(NC(=O)c3cccc(/N=N\c4cnc5ccccc5c4)c3)cc2C(F)(F)F)CC1`, the pIC50 in series [1] was 7.82.

As for `CN1CCN(Cc2ccc(NC(=O)c3cccc(/C=C\c4cnc5ccccc5c4)c3)cc2C(F)(F)F)CC1`, the negative-log IC50 (pIC50) in series [1] was 6.05.

For the compound `CCCc1cccc2cc(/C=C\c3cccc(C(=O)Nc4ccc(CN5CCN(C)CC5)c(C(F)(F)F)c4)c3)cnc12`, the pIC50 in series [1] was less than 3.30.

Regarding `CCc1cccc2cc(/C=C/c3cccc(C(=O)Nc4ccc(CN5CCN(C)CC5)c(C(F)(F)F)c4)c3)cnc12`, the pIC50 in series [1] was 5.77.

As to `CCc1cccc2cc(/C=C\c3cccc(C(=O)Nc4ccc(CN5CCN(C)CC5)c(C(F)(F)F)c4)c3)cnc12`, the pIC50 in series [1] was 4.60. This pIC50 is 1.17 log units lower than that of the compound before.
